Experimental data: patent US20190292603A1, “METHOD FOR PREDICTING THE RESPONSIVENESS OF A PATIENT TO A TREATMENT WITH mTOR INHIBITORS” (INSTITUT NATIONAL DE LA SANTE ET DE LA RECHERCHE MEDICALE, priority 2018, published 2019)

System: Eμ-Myc-GAPDHlow lymphoma
Assay: Survival of OxPhos Eμ-Myc-GAPDHlow-bearing mice treated with Temsirolimus in vivo
Settings: data not shown

For CO[C@H]1C[C@@H]2CC[C@@H](C)[C@@](O)(O2)C(=O)C(=O)N2CCCC[C@H]2C(=O)O[C@H]([C@H](C)C[C@@H]2CC[C@@H](OC(=O)C(C)(CO)CO)[C@H](OC)C2)CC(=O)[C@H](C)/C=C(\C)[C@@H](O)[C@@H](OC)C(=O)[C@H](C)C[C@H](C)/C=C/C=C/C=C/1C [Temsirolimus], the survival was “significantly increases”.
